The nature of assay [1]: In vivo piglet trial, growth performance. On the set-up: species or system weaned piglets. Here is the method:
The trial was performed from Oct. 23 to Dec. 4, 2014 at the Research Center for Animal Nutrition (DSM Nutritional Products France, F-68305 Village-Neuf) according to the official French guidelines for experiments with live animals. One hundred and four castrated male crossbred (Large-White (female)×Redon (male)) weaned piglets having 28 days of age supplied by the commercial farm “[…] du Rhin” located in Balgau (France), were used in a 42-day experiment. The initial bodyweight of the piglets was 7.88±0.675 kg. They were sorted by body weight into 32 groups of 3 or 4 piglets and randomly allotted to each dietary treatment. Each group of animals was placed in one flat-deck cages and allocated to one of the different treatments. Each treatment was replicated with 8 cages using a total of 26 animals (6 cages of 3 animals/treatment and 2 cages of 4 animals/treatment) per treatment. […] Animals were housed in an environmentally controlled room. Room temperature was initially 27° C. and was lowered weekly by about 2° C. until 21-22° C. and relative humidity percentage was 50%. The experimental diets (Pre-Starter and Starter) were fed ad libitum in two feeding phases from day 0 to 14 (phase 1, Pre-starter) and day 14 to 42 (phase 2, Starter). The ingredient composition and the calculated nutrient levels of the experimental diets for phases 1 and 2 are presented in table 11. Both diets were formulated to meet the animals' requirements according NRC (2012) and were fed in pelleted form. Pelleting conditions were at 70° C. for 30 seconds. […] No additional enzymes (e.g. phytase) were added to the feed. […] Appropriate amount of the liquid preparations of lysozyme was diluted in water and sprayed onto the respective pelleted feed to get the final concentrations in the feed corresponding to the different treatments. For procedural balance of all treatments the same volume of water were also sprayed onto the pellets of the control diets. Body weight of the individual animals and feed consumption per pen were recorded on days 14 and 42 of the study. […] The experimental unit was the piglet, except for ADFI and FCR which were measured by cage, and in both cases, treatment was used as class variable. One-factorial ANOVA and Student-Newman-Keuls test was used to assess differences among means in treatment groups.

The subject of assay [2] is Clostridium perfringens DSM756. Format: cell-based. As to conditions: for Diameter of clearing zone: lysozymes 100 μg/ml, bacitracin 50 μg/ml.
Assay [3] concerns Micrococcus lysodeikticus ATTC No. 4698. The assay is described as follows: Lysozyme activity turbidity assay (optical density drop). As to conditions: pH 6.
Assay [4] deals with Exiguobacterium undae (DSM14481). The description is as above. Format: biochemical. As to conditions: pH 6.

Like-named read-outs stand apart in the source and are kept apart here. Marks after values point to notes of the source that are not given here.

On to `O=C(O)c1ccccc1` [VevoVital, benzoic acid], for which, in assay [1] (day 0-14, 5000 mg/kg feed), the “ADFI, % relative NC” value amounted to 98.6%; the “ADFI, Mean” value was found to be 355 g/day; the “ADWG, % relative NC” value amounted to 104.8%; the “ADWG, Mean” value stood at 304 g/day. Further, in assay [1] (day 0-14, 5000 mg/kg feed), the “FCR, % relative NC” value is reported as 94.2% and the “FCR, Mean” value is 1.168^a. Also, in assay [1] (day 0-42, 5000 mg/kg feed), the “ADFI, % relative NC” value was determined as 96.6%; the “ADFI, Mean” value is 709^ab g/d; the “ADWG, % relative NC” value is listed as 105.4%; the “ADWG, Mean” value is 526 g/day. In assay [1] (day 0-42, 5000 mg/kg feed), the “EPEF, % relative NC” value amounted to 116.2%; the “EPEF, Mean” value came out at 394; the “FCR, % relative NC” value amounted to 90.4%; the “FCR, Mean” value is on record as 1.342^a. Moreover, in assay [1] (day 14-42, 5000 mg/kg feed), the “ADFI, % relative NC” value worked out at 95.3%; the “ADFI, Mean” value is reported as 886^ab g/d; the “ADWG, % relative NC” value came out at 105.8%; the “ADWG, Mean” value worked out at 638 g/day. Further, in assay [1] (day 14-42, 5000 mg/kg feed), the “FCR, % relative NC” value is on record as 90.5% and the “FCR, Mean” value was 1.398^a. Also, in assay [1] (overall period (day 0 to day 42), 5000 mg/kg), the “Improvement on FCR compared to the negative control” value worked out at 9.6%. For the same compound, in assay [1] (pre-starter period, 5000 mg/kg), the “Improvement of ADWG compared to NC” value is reported as 4.8%. Besides, the “Improvement to FCR compared to NC” value in assay [1] (starter period, day 15 to day 42, 5000 mg/kg) turned out to be 9.5%. The “Improvement of ADWG compared to NC” value in assay [1] (starter period, 5000 mg/kg) turned out to be 5.8%. For the same compound, the “Improvement of ADWG compared to NC” value in assay [1] (whole period, 5000 mg/kg) was 5.4%.
With “Bacitracin zinc salt [reference compound]”, the “Diameter of clearing zone” value in assay [2] (Experiment 1, 1/2 MHB pH 6) came to 13 mm; in assay [2] (Experiment 1, 1/10 MHB pH 7), 23 mm; in assay [2] (Experiment 2, 1/2 MHB pH 6) it was 11 mm; in assay [2] (Experiment 2, 1/10 MHB pH 7) it was 20 mm.
“SEQ ID NO: 5: mature amino acid sequence of a wild type GH22 lysozyme from Gallus gallus (hen egg white lysozyme), Sigma 62971 [reference compound]”: the figures for the “Lysozyme activity as measured by Optical Density Drop” value in assay [3] and in assay [4] were “+++ (pH 6)” and “+ (pH 6)”, respectively. Also, in assay [2] (1/10 MHB, pH7, both experiments), the Inhibition zone was 9-11 mm. Moreover, the “Diameter of clearing zone” value in assay [2] (Experiment 1, 1/2 MHB pH 6) was 0 mm; in assay [2] (Experiment 1, 1/10 MHB pH 7), 11 mm; in assay [2] (Experiment 2, 1/2 MHB pH 6), 0 mm; in assay [2] (Experiment 2, 1/10 MHB pH 7) it was 9 mm. In assay [2] (½ MHB, pH 6, both experiments), the Clearing zone diameter result is reported as “no zone of inhibition”.

These data come from US10568344B2, “Methods of improving animal performance” (Novozymes A/S, priority 2015, dated 2020).
